Values quoted from earlier work, collected in US20100272830A1, “Biocide Combination for use in Agricultural Applications” (Industrie De Nora S.p.A., priority 2008, published 2010).
Like-named read-outs stand apart in the source and are kept apart here.

Question: Which “HClO, % of total hypochlorite concentration” value (from here on “HClO, %”) (pH 5, 25° C.) does the source give for `OCl` [Hypochlorous acid (HClO), Hypochlorous acid] here?
Answer: 99.7%

Question: And the “HClO, %” value (pH 6, 25° C.)?
Answer: 96.9%

Question: And the “HClO, %” value (pH 7, 25° C.)?
Answer: 76.0%

Question: And the “HClO, %” value (pH 8, 25° C.)?
Answer: 24%

Question: What about the “HClO, %” value (pH 9, 25° C.) of the same compound?
Answer: 3.1%

Question: And the “HClO, %” value (pH 10, 25° C.)?
Answer: 0.31%

Question: And the “HClO, %” value (pH 11, 25° C.)?
Answer: 0.03%

Question: And the “HClO, %” value (pH 12, 25° C.)?
Answer: 0.003%
